Experiments:
Format in all cases: cell-based
[1] = test system: Staphylococcus aureus IFO 12732; assay: MIC against bacteria in nutrient broth (Working Example 1); settings: weight ratio 0:1 (second component alone), 24 hours at 30° C.
Protocol: (§1) By the following working examples, we describe in greater detail the antimicrobial effectiveness of the antimicrobial compositions of this invention. The term “MIC” as used in these working examples refers to the minimum inhibitory concentration (ppm) of the active ingredient in the antimicrobial compositions. […] The bacterial suspensions for inoculation used in working example 1 were prepared as follows. […] Next, test culture media were prepared by adding each of the varying diluted aqueous solutions (0.2 ml) of the antimicrobial compositions to a nutrient broth culture medium (10 ml). Each of these test culture media was inoculated with the above bacterial suspensions for inoculation (0.1 ml), and after culturing for 24 hours at 30° C. Then, the presence or absence of bacteria growth was assessed by visually observing the turbidity of the culture medium.

[2] = test system: Escherichia coli IFO 3972; assay: as above; settings: weight ratio 0:1 (second component alone), 24 hours at 30° C.
Protocol: as §1

[3] = test system: Aspergillus niger IFO 6341; assay: MIC against fungi on potato dextrose agar (Working Example 2); settings: weight ratio 0:1 (second component alone), 7 days at 28° C.; for MIC: Aspergillus niger, IFO6341, 168 h, read-out: Minimum inhibitory concentration (ppm) against Aspergillus niger
Protocol: (§2) By the following working examples, we describe in greater detail the antimicrobial effectiveness of the antimicrobial compositions of this invention. The term “MIC” as used in these working examples refers to the minimum inhibitory concentration (ppm) of the active ingredient in the antimicrobial compositions. […] The spore suspensions for inoculation used in working example 2 were prepared as follows. Two fungi, Aspergillus niger IFO 6341 and Penicillium funiculosum IFO 6345, were cultured on two potato dextrose agar culture media not containing any biocides, and spores were formed. Next, said fungus spores were dispersed in disinfectant water to which 0.005% lubricant had been added, and two spore suspensions for inoculation were thus prepared. […] Next, test culture media were prepared by adding each of the varying diluted aqueous solutions (0.3 ml) of these antimicrobial compositions to a potato dextrose agar culture medium (15 ml). Each of these test culture media was inoculated with the above spore suspensions for inoculation (1 ml), and after culturing for 7 days at 28° C. Then, the presence or absence of fungus growth on each culture medium was observed visually.

[4] = test system: Penicillium funiculosum IFO 6345; assay: as above; settings: weight ratio 0:1 (second component alone), 7 days at 28° C.; for MIC: Talaromyces funiculosus, IFO6345, 168 h, read-out: Minimum inhibitory concentration (ppm) against Penicillium funiculosum
Protocol: as §2

[5] = test system: Chlorella pyrenoidosa NIES 226; assay: MIC against algae on Bold's Basal agar (Working Example 3); settings: weight ratio 0:1 (second component alone); 14 days at 25° C. and 1500 lux
Protocol: By the following working examples, we describe in greater detail the antimicrobial effectiveness of the antimicrobial compositions of this invention. The term “MIC” as used in these working examples refers to the minimum inhibitory concentration (ppm) of the active ingredient in the antimicrobial compositions. […] The algae suspensions for inoculation used in working example 3 were prepared as follows. Bold's Basal liquid culture medium (50 ml) was inoculated with Chlorella pyrenoidosa NIES 226, it was shake-cultured for 14 days at 25° C., and algae suspensions for inoculation was thus prepared. […] Next, test culture media were prepared by adding each of the varying diluted aqueous solutions (0.1 ml) of these antimicrobial compositions to Bold's Basal agar culture medium (15 ml). Each of these test culture media was inoculated with the above algae suspensions for inoculation (1 ml), and after culturing for 14 days at 25° C. and 1500 lux. Then, the presence or absence of algae growth on each culture medium was observed visually. […] Table 5 lists the MIC, for algae, of the antimicrobial composition of each weight ratio.

| SMILES | MIC ([1]; Staphylococcus aureus, IFO12732, read-out: Minimum inhibitory concentration (ppm) against Staphylococcus aureus) | MIC ([2]; Escherichia coli, IFO3972, read-out: Minimum inhibitory concentration (ppm) against Escherichia coli) | MIC [3] | MIC [4] | Minimum inhibitory concentration (ppm) against Chlorella pyrenoidosa [5] | Minimum inhibitory concentration (ppm) against Staphylococcus aureus [1] | Minimum inhibitory concentration (ppm) against Escherichia coli [2] | Minimum inhibitory concentration (ppm) against Aspergillus niger [3] | Minimum inhibitory concentration (ppm) against Penicillium funiculosum [4] |
| --- | --- | --- | --- | --- | --- | --- | --- | --- | --- |
| Clc1ccc(OCOCC#CI)cc1 [b, 1-chloro-4-[[(3-iodo-2-propynyl)oxy]methoxy] benzene] | 20 µg/mL | 1000 µg/mL | 1 µg/mL | 4 µg/mL | 10 ppm |  |  |  |  |
| [O-][n+]1ccccc1SSc1cccc[n+]1[O-] [f, 2,2-dithio-bis(pyridine-1-oxide)] |  |  |  |  | 10 ppm | 4 ppm | 10 ppm | 10 ppm | 1 ppm |
| CCCCCCCCn1sccc1=O [i, 2-(n-octyl)-3(2H)-isothiazolone] |  |  | 0.4 µg/mL | 0.2 µg/mL | 20 ppm |  |  |  |  |
| [O-][n+]1ccccc1[S-].[O-][n+]1ccccc1[S-].[Zn+2] [c, Zinc 2-pyridine thiol-1-oxide] |  |  |  |  | 20 ppm | 40 ppm | 40 ppm | 10 ppm | 1 ppm |
| [Na+].[O-][n+]1ccccc1[S-] [e, 2-pyridine thiol-1-oxide sodium salt] |  |  |  |  | 40 ppm | 10 ppm | 200 ppm | 400 ppm | 2 ppm |
| [Cu+2].[O-][n+]1ccccc1[S-].[O-][n+]1ccccc1[S-] [d, Copper 2-pyridine thiol-1-oxide] |  |  |  |  | 100 ppm | 10 ppm | 200 ppm | 400 ppm | 1 ppm |
| CCCCNC(=O)OCC#CI [h, 3-iodo-2-propynyl butylcarbamate] |  |  | 1 µg/mL | 1 µg/mL | 40 ppm |  |  |  |  |
| CSc1nc(NC2CC2)nc(NC(C)(C)C)n1 [g, 2-methylthio-4-t-butyl amino-6-cyclopropyl amino-s-triazine] |  |  |  |  | 0.1 ppm |  |  |  |  |

From patent publication US7416736B2, “Antimicrobial compositions” (Janssen Pharmaceutica N.V., priority 2001, dated 2008)
